Assay results published in ChEMBL document CHEMBL4340557, “Fasudil dichloroacetate (FDCA), an orally available agent with potent therapeutic efficiency on monocrotaline-induced pulmonary arterial hypertension rats” (Bioorg Med Chem Lett, 2019).
Active and inactive are the calls of the source. No cut-off for these calls is given here.

What was measured:
Rattus norvegicus [1] = experiment: Anti-hypersensitive activity in MCT-induced pulmonary arterial hypertension Sprague-Dawley rat model assessed as pulmonary artery medial thickness at 37.5 mg/kg, po administered daily for 14 days starting from 14 days post-MCT challenge and measured post-last dose in presence of DCA by hematoxylin and eosin staining-based microscopic analysis (reference value: […] +/- […]); type: functional
Rattus norvegicus [2] = experiment: Hemodynamic activity in Sprague-Dawley rat assessed as effect on mean systemic arterial pressure at 37.5 mg/kg, po administered daily for 2 weeks by pressure transducer-coupled polygraphy; type: ADME, organism-based; settings: in vivo, 336 h
[3] = Plasma concentration in Sprague-Dawley rat at 12.48 mg/kg, po measured at 0.5 hrs by LC-MS/MS analysis; type: ADME, organism-based
Rattus norvegicus [4] = experiment: Anti-hypersensitive activity in MCT-induced pulmonary arterial hypertension Sprague-Dawley rat model assessed as mean pulmonary artery pressure at 37.5 mg/kg, po administered daily for 14 days starting from 14 days post-MCT challenge and measured post-last dose by pressure transducer-coupled polygraphy (reference value: 36 +/- 2.83 mmHg); type: functional
[5] = AUC (0 to t) in Sprague-Dawley rat at 12.48 mg/kg, po by LC-MS/MS analysis; type: ADME, organism-based; settings: in vivo
Rattus norvegicus [6] = experiment: Anti-hypersensitive activity in MCT-induced pulmonary arterial hypertension Sprague-Dawley rat model assessed as right ventricular systolic pressure at 37.5 mg/kg, po administered daily for 14 days starting from 14 days post-MCT challenge and measured post-last dose in presence of DCA by pressure transducer-coupled polygraphy (reference value: 59.06 +/- 3.26 mmHg); type: functional
[7] = Plasma concentration in Sprague-Dawley rat at 12.48 mg/kg, po measured at 2 hrs by LC-MS/MS analysis; type: ADME, organism-based
Rattus norvegicus [8] = experiment: Anti-hypersensitive activity in MCT-induced pulmonary arterial hypertension Sprague-Dawley rat model assessed as pulmonary artery medial thickness at 37.5 mg/kg, po administered daily for 14 days starting from 14 days post-MCT challenge and measured post-last dose by hematoxylin and eosin staining-based microscopic analysis (reference value: […] +/- […]); type: functional
[9] = Tmax in Sprague-Dawley rat at 12.48 mg/kg, po by LC-MS/MS analysis; type: ADME, organism-based; settings: in vivo
[10] = Elimination rate constant in Sprague-Dawley rat at 12.48 mg/kg, po by LC-MS/MS analysis; type: ADME, organism-based; settings: in vivo
Rattus norvegicus [11] = experiment: Anti-hypersensitive activity in MCT-induced pulmonary arterial hypertension Sprague-Dawley rat model assessed as reduction in cardiomyocyte hypertrophy by measuring cross-sectional area of cardiomyocyte at 37.5 mg/kg, po administered daily for 14 days starting from 14 days post-MCT challenge and measured post-last dose by hematoxylin and eosin staining-based microscopic analysis (reference value: 418 +/- 50.88 micrometer2); type: functional
Rattus norvegicus [12] = experiment: Anti-hypersensitive activity in MCT-induced pulmonary arterial hypertension Sprague-Dawley rat model assessed as lung fibrosis at 37.5 mg/kg, po administered daily for 14 days starting from 14 days post-MCT challenge and measured post-last dose in presence of DCA by Masson's trichrome staining-based microscopic analysis (reference value: 6.12 +/- 1.66%); type: functional
Rattus norvegicus [13] = experiment: Anti-hypersensitive activity in MCT-induced pulmonary arterial hypertension Sprague-Dawley rat model assessed as reduction in cardiomyocyte hypertrophy by measuring cardiac fibrosis at 37.5 mg/kg, po administered daily for 14 days starting from 14 days post-MCT challenge and measured post-last dose in presence of DCA by Masson's trichrome staining-based microscopic analysis (reference value: 11.74 +/- 3.24 %); type: functional; design: scale not given: the % may be the effect or the level left
[14] = AUC (0 to infinity) in Sprague-Dawley rat at 12.48 mg/kg, po by LC-MS/MS analysis; type: ADME, organism-based; design: dose 12.48 mg/kg, time infinity, route oral; settings: in vivo
[15] = AUMC (0 to t) in Sprague-Dawley rat at 12.48 mg/kg, po by LC-MS/MS analysis; type: ADME, organism-based; settings: in vivo
Rattus norvegicus [16] = experiment: Hemodynamic activity in Sprague-Dawley rat assessed as effect on mean systemic arterial pressure at 37.5 mg/kg, po administered daily for 2 weeks in presence of DCA by pressure transducer-coupled polygraphy; type: ADME, organism-based; settings: in vivo, 336 h
Rattus norvegicus [17] = experiment: Anti-hypersensitive activity in MCT-induced pulmonary arterial hypertension Sprague-Dawley rat model assessed as reduction in cardiomyocyte hypertrophy by measuring cross-sectional area of cardiomyocyte at 37.5 mg/kg, po administered daily for 14 days starting from 14 days post-MCT challenge and measured post-last dose in presence of DCA by hematoxylin and eosin staining-based microscopic analysis (reference value: 418 +/- 50.88 micrometer2); type: functional
Rattus norvegicus [18] = experiment: Anti-hypersensitive activity in MCT-induced pulmonary arterial hypertension Sprague-Dawley rat model assessed as mean pulmonary artery pressure at 37.5 mg/kg, po administered daily for 14 days starting from 14 days post-MCT challenge and measured post-last dose in presence of DCA by pressure transducer-coupled polygraphy (reference value: 36 +/- 2.83 mmHg); type: functional
[19] = MRT in Sprague-Dawley rat at 12.48 mg/kg, po by LC-MS/MS analysis; type: ADME, organism-based; settings: in vivo
[20] = Plasma concentration in Sprague-Dawley rat at 12.48 mg/kg, po measured at 0.25 hrs by LC-MS/MS analysis; type: ADME, organism-based
[21] = AUMC (0 to infinity) in Sprague-Dawley rat at 12.48 mg/kg, po by LC-MS/MS analysis; type: ADME, organism-based; settings: in vivo
[22] = Plasma concentration in Sprague-Dawley rat at 12.48 mg/kg, po measured at 4 hrs by LC-MS/MS analysis; type: ADME, organism-based
Rattus norvegicus [23] = experiment: Anti-hypersensitive activity in MCT-induced pulmonary arterial hypertension Sprague-Dawley rat model assessed as reduction in cardiomyocyte hypertrophy by measuring cardiac fibrosis at 37.5 mg/kg, po administered daily for 14 days starting from 14 days post-MCT challenge and measured post-last dose by Masson's trichrome staining-based microscopic analysis (reference value: 11.74 +/- 3.24 %); type: functional; design: scale not given: the % may be the effect or the level left
[24] = Cmax in Sprague-Dawley rat at 12.48 mg/kg, po by LC-MS/MS analysis; type: ADME, organism-based; design: dose 12.48 mg/kg, route oral; settings: in vivo
[25] = Plasma concentration in Sprague-Dawley rat at 12.48 mg/kg, po measured at 1 hr by LC-MS/MS analysis; type: ADME, organism-based
Rattus norvegicus [26] = experiment: Anti-hypersensitive activity in MCT-induced pulmonary arterial hypertension Sprague-Dawley rat model assessed as right ventricular systolic pressure at 37.5 mg/kg, po administered daily for 14 days starting from 14 days post-MCT challenge and measured post-last dose by pressure transducer-coupled polygraphy (reference value: 59.06 +/- 3.26 mmHg); type: functional
Rattus norvegicus [27] = experiment: Anti-hypersensitive activity in MCT-induced pulmonary arterial hypertension Sprague-Dawley rat model assessed as lung fibrosis at 37.5 mg/kg, po administered daily for 14 days starting from 14 days post-MCT challenge and measured post-last dose by Masson's trichrome staining-based microscopic analysis (reference value: 6.12 +/- 1.66%); type: functional
Rattus norvegicus [28] = experiment: Anti-hypersensitive activity in MCT-induced pulmonary arterial hypertension Sprague-Dawley rat model assessed as right ventricular systolic pressure at 15.5 mg/kg, po administered daily for 14 days starting from 14 days post-MCT challenge and measured post-last dose by pressure transducer-coupled polygraphy (reference value: 59.06 +/- 3.26 mmHg); type: functional
Rattus norvegicus [29] = experiment: Anti-hypersensitive activity in MCT-induced pulmonary arterial hypertension Sprague-Dawley rat model assessed as lung fibrosis at 15.5 mg/kg, po administered daily for 14 days starting from 14 days post-MCT challenge and measured post-last dose by Masson's trichrome staining-based microscopic analysis (reference value: 6.12 +/- 1.66%); type: functional
Rattus norvegicus [30] = experiment: Anti-hypersensitive activity in MCT-induced pulmonary arterial hypertension Sprague-Dawley rat model assessed as reduction in cardiomyocyte hypertrophy by measuring cross-sectional area of cardiomyocyte at 15.5 mg/kg, po administered daily for 14 days starting from 14 days post-MCT challenge and measured post-last dose by hematoxylin and eosin staining-based microscopic analysis (reference value: 418 +/- 50.88 micrometer2); type: functional
Rattus norvegicus [31] = experiment: Anti-hypersensitive activity in MCT-induced pulmonary arterial hypertension Sprague-Dawley rat model assessed as reduction in cardiomyocyte hypertrophy by measuring cardiac fibrosis at 15.5 mg/kg, po administered daily for 14 days starting from 14 days post-MCT challenge and measured post-last dose by Masson's trichrome staining-based microscopic analysis (reference value: 11.74 +/- 3.24 %); type: functional; design: scale not given: the % may be the effect or the level left
Rattus norvegicus [32] = experiment: Anti-hypersensitive activity in MCT-induced pulmonary arterial hypertension Sprague-Dawley rat model assessed as pulmonary artery medial thickness at 15.5 mg/kg, po administered daily for 14 days starting from 14 days post-MCT challenge and measured post-last dose by hematoxylin and eosin staining-based microscopic analysis (reference value: […] +/- […]); type: functional
Rattus norvegicus [33] = experiment: Anti-hypersensitive activity in MCT-induced pulmonary arterial hypertension Sprague-Dawley rat model assessed as right ventricular hypertrophy index at 15.5 mg/kg, po administered daily for 14 days starting from 14 days post-MCT challenge and measured post-last dose by pressure transducer-coupled polygraphy (reference value: […]); type: functional
Rattus norvegicus [34] = experiment: Hemodynamic activity in Sprague-Dawley rat assessed as effect on mean systemic arterial pressure at 15.5 mg/kg, po administered daily for 2 weeks by pressure transducer-coupled polygraphy; type: ADME, organism-based; settings: in vivo, 336 h
Rattus norvegicus [35] = experiment: Anti-hypersensitive activity in MCT-induced pulmonary arterial hypertension Sprague-Dawley rat model assessed as mean pulmonary artery pressure at 15.5 mg/kg, po administered daily for 14 days starting from 14 days post-MCT challenge and measured post-last dose by pressure transducer-coupled polygraphy (reference value: 36 +/- 2.83 mmHg); type: functional
Rattus norvegicus [36] = experiment: Reversal of MCT-induced Sprague-Dawley rat model of elastic fiber hyperplasia at 43.3 mg/kg, po administered daily for 14 days starting from 14 days post-MCT challenge and measured post-last dose by elastic fibres staining-based microscopic analysis; type: functional, organism-based

## Cl.O=S(=O)(c1cccc2cnccc12)N1CCCNCC1 [FASUDIL HYDROCHLORIDE]
Rattus norvegicus [1]
  Activity: 0.2
Rattus norvegicus [2]
  Activity: Non-Toxic
[3]
  concentration at 0.5 h: 23.2 ng/mL
Rattus norvegicus [4]
  Activity: 32.83 mmHg
[5]
  AUC(0-t): 55.4 ng·h/mL
Rattus norvegicus [6]
  Activity: 51.13 mmHg
[7]
  concentration at 2 h: 7.01 ng/mL
Rattus norvegicus [8]
  Activity: 0.21
[9]
  Tmax: 15 min
[10]
  k el: 0.000253 s⁻¹
Rattus norvegicus [11]
  Activity: 354.35 um2
Rattus norvegicus [12]
  Activity: 6.71%
Rattus norvegicus [13]
  Activity: 3.84%
[14]
  AUC(0-inf): 59.8 ng·h/mL
[15]
  AUMCt: 52.8 hr.hr.ng/ml
Rattus norvegicus [16]
  Activity: Non-Toxic
Rattus norvegicus [17]
  Activity: 341.12 um2
Rattus norvegicus [18]
  Activity: 29.83 mmHg
[19]
  MRT: 72 min
[20]
  concentration at 0.25 h: 84.2 ng/mL
[21]
  AUMC: 75.7 hr.hr.ng/ml
[22]
  concentration at 4 h: 3.85 ng/mL
Rattus norvegicus [23]
  Activity: 3.97%
[24]
  Cmax: 84.2 ng/mL
[25]
  concentration at 1 h: 17.8 ng/mL
Rattus norvegicus [26]
  Activity: 59.9 mmHg
Rattus norvegicus [27]
  Activity: 6.41%

## O=C([O-])C(Cl)Cl.[Na+] [SODIUM DICHLOROACETATE]
Rattus norvegicus [28]
  Activity: 57.4 mmHg
Rattus norvegicus [29]
  Activity: 12.45%
Rattus norvegicus [30]
  Activity: 387.53 um2
Rattus norvegicus [31]
  Activity: 8.47%
Rattus norvegicus [32]
  Activity: 0.3
Rattus norvegicus [33]
  Activity_index: 0.564
Rattus norvegicus [34]
  Activity: Non-Toxic
Rattus norvegicus [35]
  Activity: 34 mmHg

## O=S(=O)(c1cccc2cnccc12)N1CCCNCC1
Rattus norvegicus [36]
  Activity: Active
